Assay results: ChEMBL document CHEMBL1131809, “1-[(Benzofuran-2-yl)phenylmethyl]-triazoles and -tetrazoles - potent competitive inhibitors of aromatase” (Bioorg Med Chem Lett, 1999)

target: T1, Aromatase (Homo sapiens, UniProt P11511)
T1 sequence (P11511 whole entry): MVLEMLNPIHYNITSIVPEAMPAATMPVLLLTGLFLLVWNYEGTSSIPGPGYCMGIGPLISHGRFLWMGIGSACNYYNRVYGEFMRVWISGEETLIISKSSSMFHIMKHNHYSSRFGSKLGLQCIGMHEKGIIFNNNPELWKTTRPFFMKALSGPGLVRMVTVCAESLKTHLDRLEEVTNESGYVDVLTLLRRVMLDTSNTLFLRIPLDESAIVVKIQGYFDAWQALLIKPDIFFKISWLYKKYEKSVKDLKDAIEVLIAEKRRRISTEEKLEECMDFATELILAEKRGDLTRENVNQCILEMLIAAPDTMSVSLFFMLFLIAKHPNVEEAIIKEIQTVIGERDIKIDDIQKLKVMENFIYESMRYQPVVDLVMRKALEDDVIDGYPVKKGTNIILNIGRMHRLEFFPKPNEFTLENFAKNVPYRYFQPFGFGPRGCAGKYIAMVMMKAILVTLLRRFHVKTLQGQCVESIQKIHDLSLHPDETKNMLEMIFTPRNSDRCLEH
Description: Inhibition of human placental aromatase, cytochrome P450 19A1 at 20 uM

| Structure (SMILES) | inhibition at 20 µM [%] |
| --- | --- |
| Cc1ccc(C(c2cc3ccccc3o2)n2cnnn2)cc1 (stereo not drawn) | 67.2 |
| c1ccc(C(c2cc3ccccc3o2)n2cncn2)cc1 (stereo not drawn) | 85.7 |
| O=[N+]([O-])c1ccc2oc(C(c3ccccc3)n3cnnn3)cc2c1 (stereo not drawn) | 14.4 |
